# pIC50: −log10 of the molar value.
# How the values were obtained:
# CK1ε = CK1ε (Homo sapiens (Human), UniProt P49674); assay: CK1ε kinase assay (Caliper LABCHIP electrophoretic separation of fluoresceinated peptide substrate and product); assay type: biochemical; details: 200 pM enzyme, 50 μM ATP, 22 hours at room temperature
# Outline: (§1)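 Each reaction was incubated 22 hours at room temperature and terminated with EDTA. Read-out was microfluidic electrophoretic separation of fluoresceinated substrate and phospho-product.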
# CK1δ = CK1δ (Homo sapiens (Human), UniProt P48730); assay: CK1δ kinase assay (Caliper LABCHIP electrophoretic separation of fluoresceinated peptide substrate and product); assay type: biochemical; details: 200 pM enzyme, 50 μM ATP, 22 hours at room temperature
# Sequence of CK1δ (P48730 whole entry): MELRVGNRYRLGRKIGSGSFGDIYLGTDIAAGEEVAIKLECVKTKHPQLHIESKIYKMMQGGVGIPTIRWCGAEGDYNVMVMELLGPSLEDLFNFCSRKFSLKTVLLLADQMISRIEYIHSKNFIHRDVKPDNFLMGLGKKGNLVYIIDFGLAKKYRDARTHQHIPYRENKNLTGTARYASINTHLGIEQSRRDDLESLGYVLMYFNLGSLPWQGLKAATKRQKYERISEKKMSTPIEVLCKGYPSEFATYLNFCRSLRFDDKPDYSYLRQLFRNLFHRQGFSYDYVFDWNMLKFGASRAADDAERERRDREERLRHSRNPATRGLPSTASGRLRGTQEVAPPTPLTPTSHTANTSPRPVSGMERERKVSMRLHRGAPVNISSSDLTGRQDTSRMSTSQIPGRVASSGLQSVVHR
# Outline: as §1
# Sequence of CK1ε (P49674 whole entry): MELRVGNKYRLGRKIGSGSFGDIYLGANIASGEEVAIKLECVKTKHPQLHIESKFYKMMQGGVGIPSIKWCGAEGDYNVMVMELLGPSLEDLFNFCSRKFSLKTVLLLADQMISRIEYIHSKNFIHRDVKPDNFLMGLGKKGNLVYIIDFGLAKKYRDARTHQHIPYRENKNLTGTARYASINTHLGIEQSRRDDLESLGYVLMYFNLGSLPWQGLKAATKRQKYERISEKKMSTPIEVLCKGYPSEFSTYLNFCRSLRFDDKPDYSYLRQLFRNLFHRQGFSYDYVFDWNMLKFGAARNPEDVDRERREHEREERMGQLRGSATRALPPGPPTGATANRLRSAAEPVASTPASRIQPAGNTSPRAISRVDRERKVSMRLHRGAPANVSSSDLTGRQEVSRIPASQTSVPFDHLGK
SMILES,pIC50 (CK1ε),pIC50 (CK1δ)
"O=C(Nc1cn2nc(-c3c(-c4ccc(F)cc4)ncn3C3CCN(C(=O)CCC(F)(F)F)CC3)ccc2n1)c1ccnc(F)c1 [Compound 59, 2-fluoro-N-(6-(4-(4-fluorophenyl)-1-(1-(4,4,4-trifluorobutanoyl)piperidin-4-yl)-1H-imidazol-5-yl)imidazo[1,2-b]pyridazin-2-yl)isonicotinamide]",8.70,9.24
"Cn1ccc(C(=O)N2CCC(n3cnc(-c4ccc(F)cc4)c3-c3ccc4nc(NC(=O)c5ccnc(F)c5)cn4n3)CC2)n1 [Compound 60, 2-fluoro-N-(6-(4-(4-fluorophenyl)-1-(1-(1-methyl-1H-pyrazole-3-carbonyl)piperidin-4-yl)-1H-imidazol-5-yl)imidazo[1,2-b]pyridazin-2-yl)isonicotinamide]",9.26,9.67
"O=C(Nc1cn2nc(-c3c(-c4ccc(F)cc4)ncn3C3CCN(C(=O)CN4CCOCC4)CC3)ccc2n1)c1ccnc(F)c1 [Compound 61, 2-fluoro-N-(6-(4-(4-fluorophenyl)-1-(1-(2-morpholinoacetyl)piperidin-4-yl)-1H-imidazol-5-yl)imidazo[1,2-b]pyridazin-2-yl)isonicotinamide]",8.90,9.73
"Cc1oncc1C(=O)N1CCC(n2cnc(-c3ccc(F)cc3)c2-c2ccc3nc(NC(=O)c4ccnc(F)c4)cn3n2)CC1 [Compound 62, 2-fluoro-N-(6-(4-(4-fluorophenyl)-1-(1-(5-methylisoxazole-4-carbonyl)piperidin-4-yl)-1H-imidazol-5-yl)imidazo[1,2-b]pyridazin-2-yl)isonicotinamide]",9.59,9.50
"CC(C)(F)C(=O)N1CCC(n2cnc(-c3ccc(F)cc3)c2-c2ccc3nc(NC(=O)c4ccnc(F)c4)cn3n2)CC1 [Compound 64, 2-fluoro-N-(6-(1-(1-(2-fluoro-2-methylpropanoyl)piperidin-4-yl)-4-(4-fluorophenyl)-1H-imidazol-5-yl)imidazo[1,2-6]pyridazin-2-yl)isonicotinamide]",9.10,9.44
"O=C(Nc1cn2nc(-c3c(-c4ccc(F)cc4)ncn3C3CCN(C(=O)C4CC4(F)F)CC3)ccc2n1)c1ccnc(F)c1 (centres unmarked) [Compound 65, N-(6-(1-(1-(2,2-difluorocyclopropanecarbonyl)piperidin-4-yl)-4-(4-fluorophenyl)-1H-imidazol-5-yl)imidazo[1,2-b]pyridazin-2-yl)-2-fluoroisonicotinamide]",8.86,9.59
"CC1(C)CC1C(=O)N1CCC(n2cnc(-c3ccc(F)cc3)c2-c2ccc3nc(NC(=O)c4ccnc(F)c4)cn3n2)CC1 (centres unmarked) [Compound 66, N-(6-(1-(1-(2,2-dimethylcyclopropanecarbonyl)piperidin-4-yl)-4-(4-fluorophenyl)-1H-imidazol-5-yl)imidazo[1,2-6]pyridazin-2-yl)-2-fluoroisonicotinamide]",8.14,9.03
"O=C(Nc1cn2nc(-c3c(-c4ccc(F)cc4)ncn3C3CCN(C(=O)CCCl)CC3)ccc2n1)c1ccnc(F)c1 [Compound 70, N-(6-(1-(1-(3-chloropropanoyl)piperidin-4-yl)-4-(4-fluorophenyl)-1H-imidazol-5-yl)imidazo[1,2-b]pyridazin-2-yl)-2-fluoroisonicotinamide]",9.31,9.84
"N#CC1(C(=O)N2CCC(n3cnc(-c4ccc(F)cc4)c3-c3ccc4nc(NC(=O)c5ccnc(F)c5)cn4n3)CC2)CC1 [Compound 71, N-(6-(1-(1-(1-cyanocyclopropanecarbonyl)piperidin-4-yl)-4-(4-fluorophenyl)-1H-imidazol-5-yl)imidazo[1,2-b]pyridazin-2-yl)-2-fluoroisonicotinamide]",9.17,9.76
"O=C(Nc1cn2nc(-c3c(-c4ccc(F)cc4)ncn3C3CCN(C(=O)c4c[nH]cn4)CC3)ccc2n1)c1ccnc(F)c1 [Compound 72, N-(6-(1-(1-(1H-imidazole-4-carbonyl)piperidin-4-yl)-4-(4-fluorophenyl)-1H-imidazol-5-yl)imidazo(1,2-b]pyridazin-2-yl)-2-fluoroisonicotinamide]",9.25,9.74
"O=C(Nc1cn2nc(-c3c(-c4ccc(F)cc4)ncn3C3CCN(C(=O)c4ccns4)CC3)ccc2n1)c1ccnc(F)c1 [Compound 73, 2-fluoro-N-(6-(4-(4-fluorophenyl)-1-(1-(isothiazole-5-carbonyl)piperidin-4-yl)-1H-imidazol-5-yl)imidazo[1,2-b]pyridazin-2-yl)isonicotinamide]",9.22,9.45
"O=C(Nc1cn2nc(-c3c(-c4ccc(F)cc4)ncn3C3CCN(S(=O)(=O)C4CC4)CC3)ccc2n1)c1ccnc(F)c1 [Compound 74, N-(6-(1-(1-(cyclopropylsulfonyl)piperidin-4-yl)-4-(4-fluorophenyl)-1H-imidazol-5-yl)imidazo[1,2-b]pyridazin-2-yl)-2-fluoroisonicotinamide]",8.82,9.17
"CC(C)(C)COC(=O)N1CCC(n2cnc(-c3ccc(F)cc3)c2-c2ccc3nc(NC(=O)c4ccnc(F)c4)cn3n2)CC1 [Compound 75, neopentyl 4-(5-(2-(2-fluoroisonicotinamido)imidazo[1,2-b]pyridazin-6-yl)-4-(4-fluorophenyl)-1H-imidazol-1-yl)piperidine-1-carboxylate]",8.46,8.85
"CC(C)OC(=O)N1CCC(n2cnc(-c3ccc(F)cc3)c2-c2ccc3nc(NC(=O)c4ccnc(F)c4)cn3n2)CC1 [Compound 76, isopropyl 4-(5-(2-(2-fluoroisonicotinamido)imidazo[1,2-b]pyridazin-6-yl)-4-(4-fluorophenyl)-1H-imidazol-1-yl)piperidine-1-carboxylate]",8.74,9.60
"O=C(Nc1cn2nc(-c3c(-c4ccc(F)cc4)ncn3C3CCN(C(=O)OC4CCCC4)CC3)ccc2n1)c1ccnc(F)c1 [Compound 77, cyclopentyl 4-(5-(2-(2-fluoroisonicotinamido)imidazo[1,2-b]pyridazin-6-yl)-4-(4-fluorophenyl)-1H-imidazol-1-yl)piperidine-1-carboxylate]",7.85,9.13
"O=C(Nc1cn2nc(-c3c(-c4ccc(F)cc4)ncn3C3CCN(C(=O)OCC4CC4)CC3)ccc2n1)c1ccnc(F)c1 [Compound 78, cyclopropylmethyl 4-(5-(2-(2-fluoroisonicotinamido)imidazo[1,2-b]pyridazin-6-yl)-4-(4-fluorophenyl)-1H-imidazol-1-yl)piperidine-1-carboxylate]",8.65,9.53
"CC(C)COC(=O)N1CCC(n2cnc(-c3ccc(F)cc3)c2-c2ccc3nc(NC(=O)c4ccnc(F)c4)cn3n2)CC1 [Compound 79, isobutyl 4-(5-(2-(2-fluoroisonicotinamido)imidazo[1,2-b]pyridazin-6-yl)-4-(4-fluorophenyl)-1H-imidazol-1-yl)piperidine-1-carboxylate]",8.72,9.42
"O=C(Nc1cn2nc(-c3c(-c4ccc(F)cc4)ncn3C3CCN(C(=O)OC4COC4)CC3)ccc2n1)c1ccnc(F)c1 [Compound 80, oxetan-3-yl 4-(5-(2-(2-fluoroisonicotinamido)imidazo[1,2-b]pyridazin-6-yl)-4-(4-fluorophenyl)-1H-imidazol-1-yl)piperidine-1-carboxylate]",9.09,9.77
"O=C(Nc1cn2nc(-c3c(-c4ccc(F)cc4)ncn3C3CCN(C(=O)OC4CCOCC4)CC3)ccc2n1)c1ccnc(F)c1 [Compound 81, tetrahydro-2H-pyran-4-yl 4-(5-(2-(2-fluoroisonicotinamido)imidazo[1,2-b]pyridazin-6-yl)-4-(4-fluorophenyl)-1H-imidazol-1-yl)piperidine-1-carboxylate]",8.79,9.51
"O=C(Nc1cn2nc(-c3c(-c4ccc(F)cc4)ncn3C3CCN(C(=O)OCC4CC4(F)F)CC3)ccc2n1)c1ccnc(F)c1 (centres unmarked) [Compound 82, (2,2-difluorocyclopropyl)methyl 4-(5-(2-(2-fluoroisonicotinamido)imidazo[1,2-b]pyridazin-6-yl)-4-(4-fluorophenyl)-1H-imidazol-1-yl)piperidine-1-carboxylate]",8.80,9.61
"COC(=O)N1CCC(n2cnc(-c3ccc(F)cc3)c2-c2ccc3nc(NC(=O)c4ccnc(F)c4)cn3n2)CC1 [Compound 84, methyl 4-(5-(2-(2-fluoroisonicotinamido)imidazo[1,2-b]pyridazin-6-yl)-4-(4-fluorophenyl)-1H-imidazol-1-yl)piperidine-1-carboxylate]",9.01,9.75
"O=C(Nc1cn2nc(-c3c(-c4ccc(F)cc4)ncn3C3CCN(C(=O)OCC(F)(F)F)CC3)ccc2n1)c1ccnc(F)c1 [Compound 85, 2,2,2-trifluoroethyl 4-(5-(2-(2-fluoroisonicotinamido)imidazo[1,2-b]pyridazin-6-yl)-4-(4-fluorophenyl)-1H-imidazol-1-yl)piperidine-1-carboxylate]",8.63,9.51
"O=C(Nc1cn2nc(-c3c(-c4ccc(F)cc4)ncn3C3CCN(C(=O)OCc4ccon4)CC3)ccc2n1)c1ccnc(F)c1 [Compound 86, isoxazol-3-ylmethyl 4-(5-(2-(2-fluoroisonicotinamido)imidazo[1,2-b]pyridazin-6-yl)-4-(4-fluorophenyl)-1H-imidazol-1-yl)piperidine-1-carboxylate]",9.07,9.54
"O=C(Nc1cn2nc(-c3c(-c4ccc(F)cc4)ncn3C3CCNCC3)ccc2n1)c1cc(F)nc(F)c1 [Compound 87, 2,6-difluoro-N-(6-(4-(4-fluorophenyl)-1-(piperidin-4-yl)-1H-imidazol-5-yl)imidazo[1,2-b]pyridazin-2-yl)isonicotinamide]",8.98,9.40
"O=C(Nc1cn2nc(-c3c(-c4ccc(F)cc4)ncn3C3CCN(CCCF)CC3)ccc2n1)c1cc(F)nc(F)c1 [Compound 88, 2,6-difluoro-N-(6-(4-(4-fluorophenyl)-1-(1-(3-fluoropropyl)piperidin-4-yl)-1H-imidazol-5-yl)imidazo[1,2-b]pyridazin-2-yl)isonicotinamide]",8.59,9.42

# — US9556179B2 (BRISTOL-MYERS SQUIBB COMPANY, priority 2012, dated 2017)
